Test [1] has as its target T1, LdDOHH (recombinant L. donovani deoxyhypusine hydroxylase) (Leishmania donovani, UniProt D9IFD5).
T1 construct: gene DOHH; full length, 326 aa (981 bp ORF, ~36 kDa), pET30a EcoRI-HindIII, 6xHis tag printed as C-terminal (~6 kDa, kept), ~42 kDa, E. coli BL21(DE3), Ni-NTA
T1 sequence (D9IFD5 1-326): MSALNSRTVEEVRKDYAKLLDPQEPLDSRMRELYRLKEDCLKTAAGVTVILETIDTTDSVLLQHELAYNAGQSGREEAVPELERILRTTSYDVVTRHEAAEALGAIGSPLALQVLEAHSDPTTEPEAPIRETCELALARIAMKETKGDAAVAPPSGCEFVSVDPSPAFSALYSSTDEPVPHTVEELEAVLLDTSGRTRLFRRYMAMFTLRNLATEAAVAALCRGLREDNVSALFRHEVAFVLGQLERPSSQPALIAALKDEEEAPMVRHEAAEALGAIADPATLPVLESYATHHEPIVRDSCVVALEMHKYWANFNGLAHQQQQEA
As to the kind of experiment: [3H]hypusine release assay (periodate oxidation), Hill fit. The format is biochemical. The settings on record: read-out: concentration that inhibited 50% of activity.

Test [2] deals with T2, hDOHH (recombinant human deoxyhypusine hydroxylase) (Homo sapiens, UniProt Q9BU89).
T2 construct: gene DOHH; hDOHH-pGEX-4T-3, E. coli BL21, GST tag removed with thrombin
T2 sequence (Q9BU89 1-302): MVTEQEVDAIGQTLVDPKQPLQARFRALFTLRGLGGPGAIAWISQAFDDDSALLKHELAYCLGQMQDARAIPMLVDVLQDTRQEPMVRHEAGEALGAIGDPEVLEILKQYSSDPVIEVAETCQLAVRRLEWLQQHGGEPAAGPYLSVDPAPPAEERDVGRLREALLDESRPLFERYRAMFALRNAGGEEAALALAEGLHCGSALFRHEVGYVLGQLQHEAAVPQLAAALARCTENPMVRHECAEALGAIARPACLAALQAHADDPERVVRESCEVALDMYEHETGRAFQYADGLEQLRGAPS
As to the kind of experiment: [3H]hypusine release assay (periodate oxidation). It is filed as biochemical.

Molecules are shown by their SMILES.

What is called inhibition is the relative decrease from the control value, in per cent. As to `Cc1cc(C2CCCCC2)n(O)c(=O)c1` [ciclopirox olamine], in test [1], the IC50 is 13.6 µM. Also, the inhibition at 15 µM in test [2] is about 32%.
For the compound `N[C@@H](Cn1ccc(=O)c(O)c1)C(=O)O` [mimosine], the IC50 in test [1] amounted to 13 µM. For the same compound, in test [2], the inhibition at 15 µM is about 22%.

The values are drawn from paper PMC3306375, “A Unique Modification of the Eukaryotic Initiation Factor 5A Shows the Presence of the Complete Hypusine Pathway in Leishmania donovani” (PLoS ONE, 2012).
